This is an account of results in US7964628B2, “Fibrinogen receptor antagonists and their use” (Piramal Life Sciences Limited, priority 2003, dated 2011).

pIC50: −log10 of the molar value.

Series [1] concerns ADP-induced human platelet aggregation. The series can be described thus: Inhibition of platelet aggregation in human PRP (ADP-induced). The format is cell-based. Particulars: 0.05 h, 3 min at 37° C., ADP 5-15 μM final concentration. As to the method:
Human blood (150 ml) was collected from the ante-cubital vein of normal healthy volunteers (who were not on any medication for the past two weeks), into a siliconized glass bottle containing 25 ml of acid-citrate-dextrose (ACD) solution and 10 units of hirudin. The blood was immediately centrifuged at 200×g for 20 min at room temperature. Platelet-rich plasma (PRP) was separated and the platelet count read using a Beckman Coulter A^cT diff Counter. The tubes were centrifuged again at 2000×g for 10 min at room temperature, to get platelet-free plasma (PFP). The platelet count of PRP was adjusted to 3×10^8 platelets/ml by appropriate dilution with PFP. All in vitro experiments were conducted using PRP with adjusted number of platelets.
Inhibition of Platelet Aggregation in Human PRP (Born, G. V. R.; Cross, M. J., J. Physiol, 1963, 168, 175)
PRP was incubated with different concentrations of the test compound for 3 min at 37° C. Platelet aggregation was then induced by the addition of ADP (5-15 μM final concentration). Percent inhibition of platelet aggregation was then calculated by comparing test aggregation values with control values (Table 1).

Series [2] has the same test system. The series can be described thus: Mouse ex vivo studies: plasma of orally dosed mice tested on ADP-induced human platelet aggregation. As to conditions: 1 mg/kg, p.o; for Last time point * (time in hours): time point after which the activity fell below 30%; for Activity (%) at last time point / Activity (%) at peak: ex vivo in mice. As to the method:
Mouse ex vivo Studies: (Weller, T., Alig, L., et al J. Med. Chem., 1996, 39, 3139-3147)
Mice of either sex weighing between 25-35 g were orally fed the test compound. Blood was collected, from the abdominal aorta into ACD solution, at different time-points ranging from 15 min to 6 h. The blood samples were centrifuged at 2000×g for 10 min to get PFP. This plasma was separated and used as test sample to study its effect on ADP-induced human platelet aggregation (Table 3).

For series [3], the system named is ADP-induced guinea pig platelet aggregation. Nature of the series: Guinea pig ex vivo studies: ADP-induced guinea pig platelet aggregation after oral dosing. Particulars: ex vivo in Guinea pigs, 3.1 mg/kg, p.o; for Last time point * (time in hours): time point after which the activity fell below 30%. Here is the method:
Guinea Pig Ex vivo Studies:
Guinea pigs of either sex weighing between 500-800 g were orally fed the test compound. Blood was collected, from the carotid artery into ACD solution, at different time-points ranging from 1 to 24 h. PRP was separated and the platelet count adjusted to 3×10^8 platelets/ml using PFP. The effect of the test compound on ADP-induced guinea pig platelet aggregation was studied (Table 4).

A word on the pIC50: it is the IC50 on a negative log10 scale, so that one unit is a factor of ten. Higher therefore signals a small IC50. Usually melting point stands for the temperature, or range, at which the solid turns liquid. Compound `CCOC(=O)COc1ccc(C(=O)CN2Cc3cc(C(=N)N)ccc3C2=O)cc1` [Example 3, (4-{2-[5-Carbamimidoyl-1-oxo-1,3-dihydro-isoindol-2-yl]-acetyl}-phenoxy)-acetic acid ethyl ester] returned a melting point of 185 to 187 °C. The pIC50 in series [1] was 7.03.

In turn, `CCOC(=O)COc1ccc(C(=O)CN2Cc3cc(C(=N)N)ccc3C2=O)cc1OCC(=O)OCC` [Example 20, (4-{2-[5-Carbamimidoyl-1-oxo-1,3-dihydro-isoindol-2-yl]-acetyl}-2-ethoxycarbonylmethoxy-phenoxy)-acetic acid ethyl ester] showed a negative logarithm of the IC50 (pIC50) in series [1] of 7.30.

Compound `CCOC(=O)COc1ccc(C(=O)CN2Cc3cc(C(=N)NO)ccc3C2=O)c(O)c1SCC` [Example 49, (2-Ethylsulfanyl-3-hydroxy-4-{2-[5-(N-hydroxycarbamimidoyl)-1-oxo-1,3-dihydro-isoindol-2-yl]-acetyl}-phenoxy)-acetic acid ethyl ester] came in with a melting point of 182 to 183 °C. For the same compound, in series [2], the “Peak activity (time in hours)” value is 0.75 h, the “Last time point * (time in hours)” value came to 3 h, the “Activity (%) at last time point” value was 38% and the “Activity (%) at peak” value is recorded as 65%.

As to `CCOC(=O)COc1ccc(C(CN2Cc3cc(C(=N)NO)ccc3C2=O)=NO)cc1OCC(=O)OCC` [Example 23, (2-Ethoxycarbonylmethoxy-4-{2-[5-(N-hydroxycarbamimidoyl)-1-oxo-1,3-dihydro-isoindol-2-yl]-1-hydroxyimino-ethyl}-phenoxy)-acetic acid ethyl ester], the melting point was in the range of 181 to 182 °C. Further, in series [3], the “Activity (%) at last time point” value stood at 48%, the “Activity (%) at peak” value is recorded as 100%, the “Peak activity (time in hours)” value is 7 h and the “Last time point * (time in hours)” value came out at 13 h. Moreover, in series [2], the “Peak activity (time in hours)” value is 1 h, the “Last time point * (time in hours)” value worked out at 4 h, the “Activity (%) at last time point” value was 35% and the “Activity (%) at peak” value was found to be 100%.

For `CCOC(=O)COc1ccc(C(=O)CN2Cc3cc(C(=N)NO)ccc3C2=O)c(O)c1` [Example 42, (3-Hydroxy-4-{2-[5-(N-hydroxycarbamimidoyl)-1-oxo-1,3-dihydro-isoindol-2-yl]-acetyl}-phenoxy)-acetic acid ethyl ester], the melting point lay in the range of 197 to 198 °C. Moreover, in series [3], the “Activity (%) at last time point” value is listed as 78%, the “Activity (%) at peak” value is 100%, the “Peak activity (time in hours)” value was 7 h and the “Last time point * (time in hours)” value worked out at 15 h. Further, in series [2], the “Peak activity (time in hours)” value turned out to be 0.75 h, the “Last time point * (time in hours)” value was determined as 6 h, the “Activity (%) at last time point” value came out at 62% and the “Activity (%) at peak” value is reported as 100%.

Turning to `CC(C)COC(=O)COc1ccc(C(=O)CN2Cc3cc(C(=N)N)ccc3C2=O)cc1OCC(=O)OCC(C)C` [Example 24, (4-{2-[5-Carbamimidoyl-1-oxo-1,3-dihydro-isoindol-2-yl]-acetyl}-2-isobutoxycarbonylmethoxy-phenoxy)acetic acid isobutyl ester], the negative logarithm of the IC50 (pIC50) in series [1] was 8.22.

Take `CCOC(=O)COc1ccc(C(=O)CN2Cc3cc(C(=N)NO)ccc3C2=O)c(O)c1CC` [Example 57, (2-Ethyl-3-hydroxy-4-{2-[5-(N-hydroxycarbamimidoyl)-1-oxo-1,3-dihydro-isoindol-2-yl]-acetyl}-phenoxy)-acetic acid ethyl ester]: the melting point was in the range of 196 to 197 °C.

Compound `CCOC(=O)COc1ccc(C(=O)CN2Cc3cc(C(=N)NC(=O)OCC(C)C)ccc3C2=O)cc1Cl` [Example 31, (2-Chloro-4-{2-[5-(imino-isobutoxycarbonylamino-methyl)-1-oxo-1,3-dihydro-isoindol-2-yl]-acetyl}-phenoxy)-acetic acid ethyl ester] registered a melting point of 178 to 179 °C.

With `CCOC(=O)COC1CCN(C(=O)CN2Cc3cc(C(=N)NC(=O)OC(C)(C)C)ccc3C2=O)CC1` (hydrate or solvate) [Example 72, (1-{2-[5-(tert-Butoxycarbonylamino-imino-methyl)-1-oxo-1,3-dihydro-isoindol-2-yl]-acetyl}-piperidin-4-yloxy)-acetic acid ethyl ester], the melting point was 83 to 85 °C.
